Holding throughout (type): cell-based
In data set [1] the test system is 3D model of human airway epithelium. To be noted: 48 h, 6 mg/ml. The method, then:
Various compositions were tested for their ability to protect a 3D model of human airway epithelium, constituted with primary human epithelial cells freshly isolated from nasal (MucilAir™ nasal pool), or tracheal or bronchial biopsies (MatTek PE-200-6.5). MucilAir™ and MatTek tissues are reconstituted human 3D tissue from airways and lung surgical pieces, fully differentiated, pseudostratified in vitro epithelium. MucilAir™_Pool is of nasal polyp origin and reconstituted with a mixture of cells isolated from 14 different donors. […] MatTek tissues are from tracheo-bronchial origin. The respiratory epithelium lining the nose and throat have very similar histology and architecture. These two different models reconfirm that models from different origin have similar responses to treatment in the case that one model may have more underlying inflammation, or other variability with respect to its retrieval than another. […]
Tissue integrity was also monitored using transepithelial electrical resistance (“TEER”) measurements. […]
For TEER measurements, 200 μL of warm MucilAir™ media or MatTek TEER buffer was applied on the apical side of each insert. […] The resistance (Ω) is read on the Voltohmmeter and the TEER value was calculated with the following formula: TEER (Ω·cm^2)=(resistance value (Ω)−100 (Ω))×0.33 (cm^2). […]

Data set [2] has the same test system. Briefly: IL-8 ELISA on basal medium of bradykinin-stimulated 3D airway epithelia (MucilAir, MatTek). On the procedure: (§1) Various compositions were tested for their ability to protect a 3D model of human airway epithelium, constituted with primary human epithelial cells freshly isolated from nasal (MucilAir™ nasal pool), or tracheal or bronchial biopsies (MatTek PE-200-6.5). MucilAir™ and MatTek tissues are reconstituted human 3D tissue from airways and lung surgical pieces, fully differentiated, pseudostratified in vitro epithelium. MucilAir™_Pool is of nasal polyp origin and reconstituted with a mixture of cells isolated from 14 different donors. […] MatTek tissues are from tracheo-bronchial origin. The respiratory epithelium lining the nose and throat have very similar histology and architecture. These two different models reconfirm that models from different origin have similar responses to treatment in the case that one model may have more underlying inflammation, or other variability with respect to its retrieval than another.
(§2) Compositions were formulated with various concentrations of acetylsalicylic acid (ASA 0.6 mg/ml or ASA 6 mg/ml) in an aqueous saline solution vehicle such as 0.9% NaCl, 1.25 mM CaCl2, 10 mM HEPES. 10 μL of each formulation was added apically either to the MucilAir™ or MatTek tissues. Formulations were either added 10 minutes after activation of an inflammatory response in the media (FIGS. 1A-B, 3A, 4A), or 5 minutes before activation of an inflammatory response in the media (FIGS. 2A-B, 3B, 4B). Due to the rate of saliva production and concomitant dilution of acetylsalicylic acid on the mucosa, administration of each concentration in vitro correlates to a 10× concentration in product form. For example, 0.6 mg/ml ASA in the in vitro measurements corresponds administration of 6 mg/ml ASA in compositions, and 6 mg/ml […] corresponds to administration of 60 mg/ml in compositions.
(§3) Typically, the inflammatory cytokine bradykinin stimulates the prostaglandin pathway (through arachidonic acid) which then stimulates IL-8, another inflammatory cytokine. […] The inflammatory response of the prostaglandin pathway was stimulated through the addition of 10 μL of 25 mg/ml bradykinin protein was applied to the apical side of the MucilAir™ media.
(§4) Four hours following bradykinin application various measurements of the inflammatory response were measured. Epithelia were washed twice with MucilAir™ culture medium in order to clean the inoculum. Liquid aliquots from the basal medium were collected and stored at −80° C. for future study.
(§5) Prostaglandin E2 or IL-8 enzyme-linked immunosorbent assays (ELISA) were performed on the liquid aliquots from the basal medium to determine the amount of prostaglandin E2 produced as a result of inflammatory conditions initiated in each test condition. […] Although, acetylsalicylic acid is typically administered in doses greater than these measured, this dosage increased the inflammatory response.
MatTek (tracheal bronchial tissue) or MucilAir (nasal polyps) 3D inserts were placed in pre-warmed media corresponding to each cell system and incubated for 15 minutes at 37° C. L of saliva (negative control) or treatment was added to the apical surfaces. 5 minutes later, 10 μL of saliva or bradykinin was added to the apical side as well. Bradykinin was obtained from Tocris or New England Peptide (NEP) as indicated. At 4 hours, samples from the basal media were collected and frozen at −80° for PGE-2 ELISA measurements. […] TEER was measured again at 48 hours. […]
On the technique in general: ELISA stands for enzyme-linked immunosorbent assay.

Data set [3] shares this test system. Briefly: Prostaglandin E2 ELISA on basal medium of bradykinin-stimulated 3D airway epithelia (MucilAir, MatTek). The method, then:
as §1, §2, §3, §4, §5
MatTek (tracheal bronchial tissue) or MucilAir (nasal polyps) 3D inserts were placed in pre-warmed media corresponding to each cell system and incubated for 15 minutes at 37° C. L of saliva (negative control) or treatment was added to the apical surfaces. 5 minutes later, 10 μL of saliva or bradykinin was added to the apical side as well. Bradykinin was obtained from Tocris or New England Peptide (NEP) as indicated. At 4 hours, samples from the basal media were collected and frozen at −80° for PGE-2 ELISA measurements. At 24 hours, the inserts were moved to fresh basal media (corresponding to each cell system) and 200 L of media were added to each apical side for TEER analysis as described previously. The plate was then incubated for 5 minutes. Following TEER measurements, the apical solution was removed and 10 μL of each treatment (or saliva) was added to the apical surface. No bradykinin was added. TEER was measured again at 48 hours. Additionally, at 24 hours and 48 hours, basal media was collected and frozen for IL-8 and LDH analyses. […]

[4] abbreviates: dose above the therapeutic window.
Where [5] appears, read: overall statement, concentration not given.

Turning to `CC(=O)Oc1ccccc1C(=O)O` [ASA, acetylsalicylic acid], in data set [1], the “TEER (barrier function of the epithelia)” value is < 100 Ω·cm^2. Further, the IL-8 concentration entry in data set [2] (0.6 mg/ml ASA, therapeutic and prophylactic modalities (FIGS. 4A, 4B)) was “A similar result was not observed”; in data set [2] (6 mg/ml ASA, prophylactic modality (added before bradykinin, FIG. 4B)), “significantly greater”; in data set [2] (6 mg/ml ASA, therapeutic modality (added after bradykinin, FIG. 4A)), “significantly greater”. In addition, the “IL-8 relative to maximum bradykinin-induced level” value in data set [2] (setting [4]) is “increased”. Moreover, the “levels of IL-8 protein” value in data set [2] (setting [5]) was “did not appreciably decrease”. For the same compound, the “prostaglandin E2 production (inflammatory response) versus positive control” value in data set [3] (0.6 mg/ml ASA added 5 minutes before bradykinin (FIGS. 2A, 2B)) is on record as “did inhibit inflammation in a statistically significant manner”; in data set [3] (0.6 mg/ml ASA added 10 minutes after bradykinin, measured 4 hours after bradykinin (FIGS. 1A, 1B)) it was “resulted in an anti-inflammatory response”; in data set [3] (6 mg/ml ASA added 5 minutes before bradykinin (FIG. 2A)), “no statistical significance with respect to positive control”; in data set [3] (6 mg/ml ASA added 10 minutes after bradykinin, measured 4 hours after bradykinin (FIG. 1A)) it was “increased the inflammatory response in a statistically significant matter”. Moreover, the “PGE2 relative to maximum bradykinin-induced level” value in data set [3] (setting [4]) is recorded as “increased”. The “PGE-2 levels (bradykinin induced)” value in data set [3] (setting [5]) is “significantly decreasing”.

For the origin of these results see US20220313710A1, “COMPOSITIONS AND METHODS USING NON-STEROIDAL ANTI-INFLAMMATORY DRUGS” (APPLIED BIOLOGICAL LABORATORIES, INC., priority 2019, published 2022).
